For three compounds, Ki results are on record in US20100056507A1, “PHENYL DERIVATIVES AND THEIR USE AS A MEDICAMENT” (IPSEN PHARMA S.A.S., priority 2006, published 2010).

For this assay, the target named is T1, human CB2 receptors (Homo sapiens, UniProt P34972).
T1 construct: expressed in transfected cells; membranes used
The experiment in a line: Affinity for the human CB2 cannabinoid receptors: inhibition of [3H]-CP55940 binding to transfected CHO-K1 cell membranes. The conditions noted are these: [3H]-CP55940 1 nM, CHO-K1 membranes expressing human CB2, Cheng-Prusoff correction. The protocol:
The affinity of the compounds of the invention for the human CB2 receptors is determined by measuring the inhibition of the binding of [^3H]-CP55940 to transfected CHO-K1 cell membrane preparations.
The cells are collected with 0.5 mM of EDTA and centrifuged at 500 g for 5 minutes at 4° C. The pellet is re-suspended in phosphate buffered saline medium (PBS) and centrifuged at 500 g for 5 minutes at 4° C. The pellet is re-suspended in a Tris 50 mM buffer medium at pH 7.4 and centrifuged at 500 g for 5 minutes at 4° C. The cells are lysed by sonication and centrifuged at 39,000 g for 10 minutes at 4° C. The pellet is re-suspended in the Tris 50 mM buffer medium at pH 7.4 and centrifuged at 50,000 g for 10 minutes at 4° C. The membranes obtained in this last pellet are stored at −80° C.
Measurement of the competitive inhibition of the binding of the [^3H]-CP55940 to the CB2 receptors is carried out in duplicate using 96-well polypropylene plates. The cell membranes (10 μg of proteins/well) are incubated with the [^3H]-CP55940 (1 nM) for 60 minutes at 25° C. in a Tris-HCl 50 mM buffer medium, pH 7.4, comprising 0.1% bovine serum albumin (BSA), 5 mM of MgCl2, and 50 μg/ml of bacitracin.
The filters are washed with Tris-HCl 50 mM buffer, pH 7.4 at 0-4° C. and the radioactivity present is determined using a counter (Packard Top Count).
The specific binding is obtained by subtracting the non-specific binding (determined in the presence of 0.1 μM of WIN55212-2 from the total binding). The data are analyzed by computer-assisted non-linear regression (MDL). For each test, a Cheng-Prusoff correction is made in order to convert the IC50 to the inhibition constant, Ki.
where [L] is the concentration of the radioligand used in the test and Kd is the radioligand equilibrium disassociation constant.

Where two headings read alike, the source gives them in different places.

For orientation: Ki means a dissociation constant, usually derived from enzyme kinetics or from competition with a known ligand.

T1 sequence (P34972 whole entry): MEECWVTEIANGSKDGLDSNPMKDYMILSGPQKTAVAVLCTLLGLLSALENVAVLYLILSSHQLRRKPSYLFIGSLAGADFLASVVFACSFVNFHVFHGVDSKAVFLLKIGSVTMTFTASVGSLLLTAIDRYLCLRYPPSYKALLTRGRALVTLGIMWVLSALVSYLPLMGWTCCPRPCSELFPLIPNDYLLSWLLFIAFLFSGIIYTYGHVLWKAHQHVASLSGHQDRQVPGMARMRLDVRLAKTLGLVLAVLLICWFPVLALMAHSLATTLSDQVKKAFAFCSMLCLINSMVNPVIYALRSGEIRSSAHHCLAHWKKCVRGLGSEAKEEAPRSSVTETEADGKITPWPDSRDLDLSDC

Consider `CC1(C)CCC(C)(C)c2cc(C(=O)OCCc3ccc(NC(=O)NC4CCC4)cc3)ccc21` [Example 97], for which the Ki was less than 0.5 µM (read-out: Ki < 0.5 μM) and less than 5 µM (read-out: Ki < 5 μM).

Turning to `CCCNC(=O)Nc1ccc(CCc2nnc(-c3ccc4c(c3)C(C)(C)CCC4(C)C)s2)cc1` [Example 53], the Ki is less than 0.5 µM (read-out: Ki < 0.5 μM) and less than 5 µM (read-out: Ki < 5 μM).

`CC1(C)CCC(C)(C)c2cc(C(=O)OCc3ccc(C(=O)NC4CCC4)cc3)ccc21` [Example 3]: the Ki reads like this: (read-out: Ki < 0.5 μM) less than 0.5 µM; (read-out: Ki < 5 μM) less than 5 µM.
